The source of these data is patent publication US12410228B2, “Insulin analogs” (UNIVERSITY OF UTAH RESEARCH FOUNDATION, priority 2016, dated 2025).

For one experiment, the target named is T1, human IR-B (Homo sapiens, UniProt P06213).
T1 construct: expressed in transfected cells; host or cells: NIH 3T3 mouse fibroblasts overexpressing human IR-B (puromycin selection)
Nature of the experiment: cell-based.

The next experiment deals with fish. Nature of the experiment: Effect on fish (injection or presence in the water). It counts as in vivo.
The next experiment has as its target T2, human IR (isoform B) (Homo sapiens, UniProt P06213).
T2 construct: expressed in transfected cells; host or cells: R- IR-B cells, lysed with Triton X-100 and captured with anti-IR antibody 83-7; This comes from the general description of the Denley et al. 2004 format
Nature of the experiment: biochemical. It counts as binding.

For experiment [1] the following is noted: relative to insulin; Bao et al. 1997; cited from earlier work.
Another experiment concerns the target hIR (Homo sapiens, UniProt P06213). Nature of the experiment: hIR activation / insulin signalling activation by DOI analogues and venom insulins (Example 11, FIGS. 22-27). It counts as cell-based.

pEC50, pIC50: −log10 of the molar value.

`CC[C@H](C)[C@@H]1NC(=O)[C@H](CC(C(=O)O)C(=O)O)NC(=O)[C@H](CO)NC(=O)CNC(=O)[C@@H](NC(=O)[C@H](CCCNC(=N)N)NC(=O)[C@H](Cc2c[nH]cn2)NC(=O)[C@H](CCCCN)NC(=O)[C@@H]2C[C@@H](O)CN2C(=O)[C@@H](NC(=O)[C@H](CC(=O)O)NC(=O)[C@H](Cc2ccccc2)NC(=O)[C@@H](N)[C@@H](C)O)[C@@H](C)O)CSSC[C@@H]2NC(=O)[C@@H](NC(=O)[C@H](Cc3c[nH]cn3)NC(=O)[C@H](CC(C(=O)O)C(=O)O)NC(=O)[C@@H](NC(=O)[C@@H](NC(=O)CN)C(C)C)C(C)C)C[Se][Se]C[C@H](NC(=O)[C@@H]3CCCN3C(=O)[C@H](CCCNC(=N)N)NC(=O)[C@H](Cc3c[nH]cn3)NC2=O)C(=O)N[C@@H](CO)C(=O)N[C@@H](CC(N)=O)C(=O)N[C@@H](C)C(=O)N[C@@H](CCC(=O)O)C(=O)N[C@@H](Cc2ccccc2)C(=O)N[C@@H](CCCCN)C(=O)N[C@@H](CCCCN)C(=O)N[C@@H](Cc2ccc(O)cc2)C(=O)N[C@H](C(N)=O)CSSC[C@@H](C(=O)N[C@@H](Cc2ccc(O)cc2)C(=O)N[C@@H](CCCNC(=N)N)C(=O)O)NC(=O)[C@H](CC(C)C)NC(=O)[C@H](CC(=O)O)NC(=O)[C@H](CCSC)NC(=O)[C@H](Cc2ccc(O)cc2)NC(=O)[C@H](CO)NC(=O)[C@H](CC(N)=O)NC(=O)[C@H]([C@@H](C)O)NC1=O` [sCon-Ins G1]: at human IR-B, the pEC50 is 8.10 and the “efficiency of inducing Akt phosphorylation relative to PTM-free analogue” value was “eight-fold greater efficiency”. Further, the “hypoglycemic effect in fish” value with fish (injected into fish) is “induces hypoglycemic shock”. The “effect on fish motility” value in the experiment on fish (present in the water) is “slows fish motility”. Also, on human IR (isoform B), the negative logarithm of the IC50 (pIC50) was 7.76, the “activity / affinity at human IR relative to human insulin (fold less)” value is “thirty-fold less active” and the “activity against the human IR-B relative to PTM-free analogue” value was “four times more active”.

As for “DOI: monomeric analogue lacking residues 23 to 30 of the B chain of human insulin [reference compound]”, the bioactivity preserved result in experiment [1] was “less than 0.1%”. The “potency in hIR activation, comparison in words” value with hIR is on record as “same”. The “potency relative to human insulin (fold weaker)” value with hIR (relative to human insulin) is recorded as 1,000 fold.

Consider “hIns[TyrB15, TyrB20, DOI]: des-octapeptide human insulin with Tyr at B15 and B20”, for which the “activity in Akt phosphorylation assay relative to hIns[DOI]” value with human IR-B is reported as “ca five-fold more active”.

For “quadruple DOI mutant: DOI analogue with A8 His, A9 Arg, B10 Glu and B20 Tyr; A chain SEQ ID NO: 39, B chain SEQ ID NO: 30”, the “potency in hIR activation, comparison in words” value in the experiment with hIR is recorded as “comparable to that of human insulin”.
